Data: patent US9234004B2, “Antimicrobial peptides” (Agency for Science, Technology and Research, priority 2010, dated 2016)
In brackets after ≈: the same amount, converted by molar mass. Where two headings read alike, the source gives them in different places. Ends that are not written are not given here. Peptide text beside a SMILES is read from it.

Key:
Type in all cases: cell-based
[1] = test system: B. subtilis
Protocol: (§1) Microbial cells were firstly re-constituted from its lyophilized form according to the manufacturer's protocol. Bacterial cells were cultured in tryptic soy broth (TSB) at 37° C., and yeast cells were cultured in yeast mould broth (YMB) at room temperature under constant shaking at 100 rpm. Broth containing an antimicrobial peptide was prepared at various concentrations (0.98, 1.95, 3.90, 7.81, 15.63, 31.25, 62.5, 125, 250, 500 mg/L) and transferred into a 96-well tissue culture plate (100 μL/well). Microorganism was first inoculated overnight to enter its log growth-phase. An equal volume of microorganism solution (100 μL) was added into each well of the 96-well plate containing the antimicrobial peptide. Prior to this mixing, the concentration of microorganism solution was adjusted to give an initial optical density (O.D.) reading of 0.1-0.2 at 600 nm wavelength. The growth of the microorganism was observed upon introducing the antimicrobial peptide by measuring the O.D. readings at 2 hour intervals for up to 8 hours. […] Broth containing microbial cells was used as the negative control, and each test was carried out in 6 replicates. The standard deviations of the 6 readings were reported as the error bars.

[2] = test system: C. albicans
Protocol: as §1

[3] = test system: E. coli
Protocol: as §1

[4] = test system: P. aeruginosa
Protocol: as §1

[5] = test system: rat red blood cells; experiment: Hemolytic activity test
Protocol: Peptides were obtained from GL Biochem (Shanghai, China), and their fidelity was further confirmed via matrix-assisted laser desorption/ionization time-of-flight mass spectroscopy (MALDI-TOF MS, Model Autoflex II, Bruker Daltonics Inc., U.S.A.), using α-cyano-4-hydroxycinnamic acid as matrix. The purity of the peptides was also tested to be more than 95% with analytical reverse phase (RP)-HPLC. α-Cyano-4-hydroxycinnamic acid (HCCA) was purchased from Sigma-Aldrich (Singapore) and used in saturated acetonitrile/water (1:1 volume ratio) after being re-crystallized. Sodium dodecyl sulphate (SDS) micelle solution (10% w/v in DI water) was obtained from 1st Base (Malaysia) and used upon dilution to the desirable concentration range. Tryptic soy broth (TSB) powder and yeast mould broth (YMB) powder were purchased from BD Diagnostics (Singapore) and used to prepare the microbial broths according to the manufacturer's instructions. Phosphate-buffered saline solution at 10× concentration was purchased from 1st Base (Malaysia) and used after dilution to the desired concentration. Ethanol (analytical grade, 99%) and glutaraldehyde (synthetic grade, 50% in H2O) were purchased from Sigma Aldrich (Singapore) and used as received. […] Red blood cells used in the experiments were obtained from rats maintained at the Animal Handling Units of the Biomedical Research Centers (Singapore). Human peripheral blood mononuclear cells (PBMCs) were extracted from healthy blood donors and maintained with RPMI medium supplemented with 10% lowendotoxin fetal bovine serum (FBS) and 1% penicillin-streptomycin. Granulocyte macrophage-colony stimulating factor (GM-CSF) and lipopolysaccharide were purchased from Sigma-Aldrich and used as received.
Fresh red blood cells were washed with PBS for three times, and were subjected to 25 times dilution with PBS to reach a concentration of approximately 4% (in volume) of the blood cells. The red blood cell suspension (100 μL) was placed into a 96-well cell culture plate and mixed with 100 μL of the antimicrobial peptide solution in PBS at concentrations of 0.98, 1.95, 3.90, 7.81, 15.63, 31.25, 62.5, 125, 250, 500 mg/L. The mixture was then incubated at 37° C. for 1 hour to allow for the hemolysis process to take place. At the end of incubation time, the non-hemolysed red blood cells were separated by centrifugation at 13000 g for 5 minutes. Aliquots (100 μL) of the supernatant were transferred into a new 96-well plate, and the hemoglobin release was measured by checking the UV-absorbance of the samples at 576 nm using a microplate reader (TECAN, Switzerland). Two controls were provided in this assay: an untreated red blood cell suspension in PBS was used as the negative control, and a solution containing red blood cells lysed with 0.1% Triton-X was used as the positive control. Each assay was performed in 6 replicates, and the data were expressed as means and standard deviations of the 6 replicates. Percentage of hemolysis was calculated using the following formula: Hemolysis (%)=[(O.D.576 nm of the treated sample−O.D.576 nm of the negative control)/(O.D.576 nm of positive control−O.D.576 nm of negative control)]×100%. Field Emission-Scanning Electron Microscopy (FE-SEM) Analysis of Bacterial Cells

[6] = 8 hours incubation, tryptic soy broth, 37° C.
[7] = 8 hours incubation, yeast mould broth, room temperature
[8] = rat red blood cells, 37° C., 1 hour

Compound | MIC B. subtilis ([1]; 8 h) | MIC C. albicans ([2]; 8 h) | MIC E. coli ([3]; 8 h) | MIC P. aeruginosa ([4]; 8 h) | HC50 (50% hemolytic concentration) ([5]; red cells of rat, 1 h) | MIC B. subtilis [1, 6] | MIC C. albicans [2, 7] | MIC E. coli [3, 6] | MIC P. aeruginosa ([4]; 8 hours incubation) | HC50 (50% hemolytic concentration) [5, 8] | hemolysis at the MIC against B. subtilis [5] | hemolysis at the MIC level for C. albicans [5]
CC(C)C[C@H](NC(=O)[C@H](CC(C)C)NC(=O)[C@H](CCCCN)NC(=O)[C@H](CCCCN)NC(=O)[C@H](CC(C)C)NC(=O)[C@H](CC(C)C)NC(=O)[C@@H](N)CS)C(=O)N[C@@H](CCCCN)C(=O)N[C@@H](CCCCN)C(=O)N[C@@H](CS)C(N)=O [CLLKKLLKKC-NH2] (H-CLLKKLLKKC-NH2) | 125 µg/mL (≈ 105 µM) | 250 µg/mL (≈ 210 µM) | 225 µg/mL (≈ 189 µM) | 125 µg/mL (≈ 105 µM) | >2500 mg/L | – | – | – | – | – | – | –
CC(C)C[C@H](NC(=O)[C@H](CC(C)C)NC(=O)[C@H](CCCCN)NC(=O)[C@H](CCCCN)NC(=O)[C@H](CC(C)C)NC(=O)[C@H](CC(C)C)NC(=O)[C@H](CCCCN)NC(=O)[C@H](CCCCN)NC(=O)[C@H](CC(C)C)NC(=O)[C@H](CC(C)C)NC(=O)[C@@H](N)CS)C(=O)N[C@@H](CCCCN)C(=O)N[C@@H](CCCCN)C(=O)N[C@@H](CS)C(N)=O [CLLKKLLKKLLKKC-NH2] (H-CLLKKLLKKLLKKC-NH2) | – | – | – | – | – | 31 µg/mL (≈ 18.5 µM) | 125 µg/mL (≈ 74.8 µM) | 125 µg/mL (≈ 74.8 µM) | 125 µg/mL (≈ 74.8 µM) | ~82 mg/L | – | –
AARRAARRAARR-NH2 [(AARR)3, AARRAARRAARR-NH2] | >500 µg/mL | >500 µg/mL | >500 µg/mL | – | >500 mg/L | – | – | – | – | – | – | –
FFRRFFRR-NH2 [(FFRR)2, FFRRFFRR-NH2] | 125 µg/mL | >500 µg/mL | >500 µg/mL | – | >500 mg/L | – | – | – | – | – | – | –
FFRRFFRRFFRR-NH2 [(FFRR)3, FFRRFFRRFFRR-NH2] | 31.3 µg/mL | 125 µg/mL | >500 µg/mL | – | >500 mg/L | – | – | – | – | – | less than 5% | 12-24%
FFRRFFRRFFRRFFRR-NH2 [(FFRR)4, FFRRFFRRFFRRFFRR-NH2] | 20 µg/mL | >50 µg/mL | >50 µg/mL | – | ~26 mg/L | – | – | – | – | – | around 50% | –
LLKKLLKKC-NH2 [LLKKLLKKC-NH2] | 125 µg/mL | 250 µg/mL | >500 µg/mL | 63 µg/mL | >2500 mg/L | – | – | – | – | – | – | –
LLKKLLKKLLKK-NH2 [(LLKK)3, LLKKLLKKLLKK-NH2] | 31.3 µg/mL | 125 µg/mL | >500 µg/mL | – | >500 mg/L | – | – | – | – | – | less than 5% | –
LLKKLLKKLLKKC-NH2 [LLKKLLKKLLKKC-NH2] | – | – | – | – | – | 16 µg/mL | 63 µg/mL | 150 µg/mL | 16 µg/mL | ~402 mg/L | – | –
LLRRLLRRLLRR-NH2 [(LLRR)3, LLRRLLRRLLRR-NH2] | 15.6 µg/mL | 500 µg/mL | >500 µg/mL | – | >500 mg/L | – | – | – | – | – | less than 5% | 12-24%
LLRRLLRRLLRRLLRR-NH2 [(LLRR)4, LLRRLLRRLLRRLLRR-NH2] | 10 µg/mL | >50 µg/mL | >50 µg/mL | – | ~12 mg/L | – | – | – | – | – | around 50% | –
MLLKKLLKKLLKKM-NH2 [MLLKKLLKKLLKKM-NH2] | – | – | – | – | – | 31 µg/mL | 125 µg/mL | 250 µg/mL | 31 µg/mL | ~158 mg/L | – | –
MLLKKLLKKM-NH2 [MLLKKLLKKM-NH2] | 125 µg/mL | 500 µg/mL | >500 µg/mL | 500 µg/mL | >2500 mg/L | – | – | – | – | – | – | –
